Measured values as given in ChEMBL document CHEMBL1201862, “PubChem BioAssay data set” (2004).
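Dose response: 5 concentrations. Exposure: 48 h. Format: 96-well plates. Endpoint: linear interpolation; highest concentration if not reached. GI50: concentration for 50% inhibition of growth.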 Activity calls are given as the source filed them. Rule as the data show it: active = GI50 up to about 1.1 µM and inactive = higher.

Columns and labels:
Test in all cases: growth of human tumour cells (NCI), 48 h
A549 = test system: A549
HCT-116 = test system: HCT-116
DU-145 = test system: DU-145
SW-620 = test system: SW-620
CCRF-CEM = test system: CCRF-CEM
M14 = test system: M14
UO-31 = test system: UO-31
Malme-3M = test system: Malme-3M
ACHN = test system: ACHN
OVCAR-3 = test system: OVCAR-3
PC-3 = test system: PC-3
SK-OV-3 = test system: SK-OV-3
HT-29 = test system: HT-29
RPMI-8226 = test system: RPMI-8226
SR = test system: SR
MDA-MB-231 = test system: MDA-MB-231
SK-MEL-2 = test system: SK-MEL-2
786-0 = test system: 786-0
HL-60 = test system: HL-60
MOLT-4 = test system: MOLT-4
IGROV-1 = test system: IGROV-1
HOP-92 = test system: HOP-92
BT-549 = test system: BT-549
KM12 = test system: KM12
K562 = test system: K562
HCT-15 = test system: HCT-15
NCI-H226 = test system: NCI-H226
SNB-19 = test system: SNB-19
RXF 393 = test system: RXF 393
MDA-MB-435 = test system: MDA-MB-435
UACC-257 = test system: UACC-257
SK-MEL-5 = test system: SK-MEL-5
HCC 2998 = test system: HCC 2998
T47D = test system: T47D
SF-295 = test system: SF-295
OVCAR-8 = test system: OVCAR-8
LOX IMVI = test system: LOX IMVI
NCI-H460 = test system: NCI-H460
NCI-H23 = test system: NCI-H23
U-251 = test system: U-251
SF-268 = test system: SF-268
OVCAR-5 = test system: OVCAR-5
HOP-62 = test system: HOP-62
OVCAR-4 = test system: OVCAR-4
Hs-578T = test system: Hs-578T
NCI-H522 = test system: NCI-H522
COLO 205 = test system: COLO 205
MDA-N = test system: MDA-N
SN12C = test system: SN12C
SNB-75 = test system: SNB-75
MCF7 = test system: MCF7
EKVX = test system: EKVX
CAKI-1 = test system: CAKI-1
NCI/ADR-RES = test system: NCI/ADR-RES
UACC-62 = test system: UACC-62
SF-539 = test system: SF-539
TK-10 = test system: TK-10
SK-MEL-28 = test system: SK-MEL-28
A498 = test system: A498

`CC1=C(C(=O)OC(C)C)C(c2cccc([N+](=O)[O-])c2)C(C(=O)OC(CO[N+](=O)[O-])CO[N+](=O)[O-])=C(C)N1` (stereo unspecified) was tested, and the GI50 (A549) was 3.37 µM (inactive), the GI50 (HCT-116) was 2.66 µM (inactive) and the GI50 (DU-145) was 11.4 µM (inactive). The GI50 (SW-620) was 4.14 µM (inactive), the GI50 (CCRF-CEM) was 1.92 µM (inactive) and the GI50 (M14) was 3.56 µM (inactive). The GI50 (UO-31) was 3.44 µM (inactive), the GI50 (Malme-3M) was 5.15 µM (inactive) and the GI50 (ACHN) was 3.44 µM (inactive). For the same compound, the GI50 (OVCAR-3) was 3.45 µM (inactive), the GI50 (PC-3) was 2.05 µM (inactive) and the GI50 (SK-OV-3) was 7.01 µM (inactive). The GI50 (HT-29) was 3.21 µM (inactive), the GI50 (RPMI-8226) was 1.05 µM (active) and the GI50 (SR) was 3.22 µM (inactive). For the same compound, the GI50 (MDA-MB-231) was 3.59 µM (inactive), the GI50 (SK-MEL-2) was 2.39 µM (inactive) and the GI50 (786-0) was 3.56 µM (inactive). For the same compound, the GI50 (HL-60) was 2 µM (inactive), the GI50 (MOLT-4) was 1.85 µM (inactive) and the GI50 (IGROV-1) was 4.75 µM (inactive). For the same compound, the GI50 (HOP-92) was 1.78 µM (inactive), the GI50 (BT-549) was 2.67 µM (inactive) and the GI50 (KM12) was 3.3 µM (inactive). The GI50 (K562) was 2.76 µM (inactive), the GI50 (HCT-15) was 2.86 µM and the GI50 (NCI-H226) was 6.55 µM (inactive). The GI50 (SNB-19) was 2.99 µM (inactive), the GI50 (RXF 393) was 7.52 µM (inactive) and the GI50 (MDA-MB-435) was 3.15 µM (inactive). For the same compound, the GI50 (UACC-257) was 3.54 µM (inactive), the GI50 (SK-MEL-5) was 1.96 µM (inactive) and the GI50 (HCC 2998) was 4.53 µM (inactive). For the same compound, the GI50 (T47D) was 3.99 µM (inactive), the GI50 (SF-295) was 0.501 µM (active) and the GI50 (OVCAR-8) was 3.85 µM (inactive). The GI50 (LOX IMVI) was 3.08 µM (inactive), the GI50 (NCI-H460) was 3.5 µM (inactive) and the GI50 (NCI-H23) was 5.37 µM (inactive). The GI50 (U-251) was 2.24 µM (inactive), the GI50 (SF-268) was 2.26 µM (inactive) and the GI50 (OVCAR-5) was 6.71 µM (inactive). The GI50 (HOP-62) was 3.85 µM (inactive), the GI50 (OVCAR-4) was 2.81 µM (inactive) and the GI50 (Hs-578T) was 3.51 µM (inactive). For the same compound, the GI50 (NCI-H522) was 1.85 µM (inactive), the GI50 (COLO 205) was 2.93 µM (inactive) and the GI50 (MDA-N) was 2.83 µM (inactive). For the same compound, the GI50 (SN12C) was 3.97 µM (inactive), the GI50 (SNB-75) was 2.66 µM (inactive) and the GI50 (MCF7) was 0.61 µM (active). The GI50 (EKVX) was 4.37 µM (inactive), the GI50 (CAKI-1) was 3.99 µM (inactive) and the GI50 (NCI/ADR-RES) was 2.45 µM (inactive). For the same compound, the GI50 (UACC-62) was 2.65 µM (inactive), the GI50 (SF-539) was 3.01 µM (inactive) and the GI50 (TK-10) was 8.07 µM (inactive). The GI50 (SK-MEL-28) was 11.4 µM (inactive).
For `CCC1CCC2c3c([nH]c4ccc(C)cc34)C3C(=O)N(N(C)C)C(=O)C3C2C1` (stereo unspecified), the GI50 (A549) was 15.9 µM (inactive), the GI50 (HCT-116) was 7.36 µM (inactive) and the GI50 (DU-145) was 29.9 µM (inactive). For the same compound, the GI50 (SW-620) was 13.8 µM (inactive), the GI50 (CCRF-CEM) was 12.7 µM (inactive) and the GI50 (M14) was 14.5 µM (inactive). The GI50 (UO-31) was > 75 µM (inactive), the GI50 (Malme-3M) was 1.02 µM (active) and the GI50 (ACHN) was 91.2 µM (inactive). The GI50 (OVCAR-3) was 0.787 µM (active), the GI50 (PC-3) was 6.22 µM (inactive) and the GI50 (SK-OV-3) was > 100 µM (inactive). For the same compound, the GI50 (HT-29) was 7.28 µM (inactive), the GI50 (RPMI-8226) was 19 µM (inactive) and the GI50 (SR) was 3.17 µM (inactive). The GI50 (MDA-MB-231) was 72.8 µM (inactive), the GI50 (SK-MEL-2) was 24.6 µM (inactive) and the GI50 (786-0) was 7.24 µM (inactive). For the same compound, the GI50 (HL-60) was 3.05 µM (inactive), the GI50 (MOLT-4) was 14.5 µM (inactive) and the GI50 (IGROV-1) was 5.11 µM (inactive). For the same compound, the GI50 (HOP-92) was 38.7 µM (inactive), the GI50 (BT-549) was 39.1 µM (inactive) and the GI50 (KM12) was 6.52 µM (inactive). For the same compound, the GI50 (K562) was 2.62 µM (inactive), the GI50 (HCT-15) was 5.78 µM and the GI50 (NCI-H226) was > 72.4 µM (inactive). For the same compound, the GI50 (SNB-19) was 16.9 µM (inactive), the GI50 (RXF 393) was 8.05 µM (inactive) and the GI50 (MDA-MB-435) was 1.37 µM (inactive). For the same compound, the GI50 (UACC-257) was 5.64 µM (inactive), the GI50 (SK-MEL-5) was 12.8 µM (inactive) and the GI50 (HCC 2998) was 35.2 µM (inactive). For the same compound, the GI50 (T47D) was 7.93 µM (inactive), the GI50 (SF-295) was 5.11 µM (inactive) and the GI50 (OVCAR-8) was 22.2 µM (inactive). The GI50 (LOX IMVI) was 13.7 µM (inactive), the GI50 (NCI-H460) was 7.45 µM (inactive) and the GI50 (NCI-H23) was > 67.3 µM (inactive). For the same compound, the GI50 (U-251) was 19.5 µM (inactive), the GI50 (SF-268) was 7.62 µM (inactive) and the GI50 (A498) was > 100 µM (inactive). For the same compound, the GI50 (OVCAR-5) was > 86.5 µM (inactive), the GI50 (HOP-62) was > 27 µM (inactive) and the GI50 (OVCAR-4) was 34 µM (inactive). For the same compound, the GI50 (Hs-578T) was 4.91 µM (inactive), the GI50 (NCI-H522) was 0.748 µM (active) and the GI50 (COLO 205) was 4.36 µM (inactive). For the same compound, the GI50 (MDA-N) was 1.09 µM (active), the GI50 (SN12C) was 17.9 µM (inactive) and the GI50 (MCF7) was 3.64 µM (inactive). For the same compound, the GI50 (EKVX) was 26.7 µM (inactive), the GI50 (CAKI-1) was > 34.4 µM (inactive) and the GI50 (NCI/ADR-RES) was 4.35 µM (inactive). The GI50 (UACC-62) was 17.6 µM (inactive), the GI50 (SF-539) was 18.2 µM (inactive) and the GI50 (TK-10) was 32.4 µM (inactive). For the same compound, the GI50 (SK-MEL-28) was > 83.4 µM (inactive).
With `Cc1noc(/N=C2\C=C(O)C(=O)c3ccccc32)c1C` the GI50 (A549) was 5.31 µM (inactive), the GI50 (HCT-116) was 1.69 µM (inactive) and the GI50 (DU-145) was 11.4 µM (inactive). For the same compound, the GI50 (M14) was 0.656 µM (active), the GI50 (UO-31) was 3.18 µM (inactive) and the GI50 (Malme-3M) was 2.55 µM (inactive). For the same compound, the GI50 (ACHN) was 13 µM (inactive), the GI50 (OVCAR-3) was 4.31 µM (inactive) and the GI50 (PC-3) was 16.4 µM (inactive). The GI50 (SK-OV-3) was 8.3 µM (inactive), the GI50 (HT-29) was 17.6 µM (inactive) and the GI50 (RPMI-8226) was 9.64 µM (inactive). The GI50 (SR) was 18.7 µM (inactive), the GI50 (MDA-MB-231) was 11.6 µM (inactive) and the GI50 (SK-MEL-2) was 0.251 µM (active). For the same compound, the GI50 (786-0) was 21.2 µM (inactive), the GI50 (HL-60) was 0.516 µM (active) and the GI50 (MOLT-4) was 18.7 µM (inactive). The GI50 (IGROV-1) was 10 µM (inactive), the GI50 (HOP-92) was 18.8 µM (inactive) and the GI50 (BT-549) was 1.05 µM (active). For the same compound, the GI50 (KM12) was 0.254 µM (active), the GI50 (K562) was 0.206 µM (active) and the GI50 (HCT-15) was 11.6 µM. The GI50 (NCI-H226) was 23.8 µM (inactive), the GI50 (SNB-19) was 3.91 µM (inactive) and the GI50 (MDA-MB-435) was 0.126 µM (active). For the same compound, the GI50 (UACC-257) was 4.19 µM (inactive), the GI50 (SK-MEL-5) was 0.676 µM (active) and the GI50 (T47D) was 33.3 µM (inactive). For the same compound, the GI50 (SF-295) was 11.1 µM (inactive), the GI50 (OVCAR-8) was 7.38 µM (inactive) and the GI50 (LOX IMVI) was 2.14 µM (inactive). For the same compound, the GI50 (NCI-H460) was 2.36 µM (inactive), the GI50 (NCI-H23) was 3.47 µM (inactive) and the GI50 (U-251) was 1.03 µM (active). The GI50 (SF-268) was 16.9 µM (inactive), the GI50 (A498) was 29.2 µM (inactive) and the GI50 (OVCAR-5) was 9.27 µM (inactive). The GI50 (HOP-62) was 2.18 µM (inactive), the GI50 (OVCAR-4) was 19.5 µM (inactive) and the GI50 (Hs-578T) was 2.24 µM (inactive). For the same compound, the GI50 (NCI-H522) was 0.274 µM (active), the GI50 (COLO 205) was 31.5 µM (inactive) and the GI50 (MDA-N) was 0.173 µM (active). The GI50 (SN12C) was 0.918 µM (active), the GI50 (SNB-75) was 3.5 µM (inactive) and the GI50 (MCF7) was 0.495 µM (active). For the same compound, the GI50 (EKVX) was 37.8 µM (inactive), the GI50 (CAKI-1) was 5 µM (inactive) and the GI50 (NCI/ADR-RES) was 0.505 µM (active). The GI50 (UACC-62) was 2.14 µM (inactive), the GI50 (SF-539) was 1.04 µM (active) and the GI50 (TK-10) was > 100 µM (inactive). For the same compound, the GI50 (SK-MEL-28) was 58.1 µM (inactive).
